One assay has as its target AM2 S31 (wild-type serine at position 31 in the M2 protein), influenza virus A/Udorn/72 (Influenza A virus, UniProt P0DOF5). As to the kind of experiment: cell-based. The settings on record: 100 uM; Xenopus oocytes; activity range class; read-out: S31 OOcyte Inhibition at 100 uM (%).
AM2 S31 (wild-type serine at position 31 in the M2 protein), influenza virus A/Udorn/72, sequence (P0DOF5 whole entry, looked up): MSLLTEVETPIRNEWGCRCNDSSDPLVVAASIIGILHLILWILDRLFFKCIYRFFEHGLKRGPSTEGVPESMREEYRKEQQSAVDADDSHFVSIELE
The term inhibition denotes the drop in the measured response relative to a control, in per cent. Consider `c1ccc(-c2nc(CNC34CC5CC(CC(C5)C3)C4)c[nH]2)cc1` [Example 114a, N-((2-phenyl-1H-imidazol-4-yl)methyl)adamantan-1-amine], for which the inhibition at 100 µM lay in the range of 31 to 95%.

On to `c1ccc(-c2nnc(CNC34CC5CC(CC(C5)C3)C4)o2)cc1` [Example 115a, N-((5-phenyl-1,3,4-oxadiazol-2-yl)methyl)adamantan-1-amine], for which the inhibition at 100 µM was in the range of 0 to 30%.

As for `c1ccc(-c2cc(CNC34CC5CC(CC(C5)C3)C4)no2)cc1` [Example 116a, N-((5-phenylisoxazol-3-yl)methyl)adamantan-1-amine], the inhibition at 100 µM lay in the range of 0 to 30%.

As to `Brc1ccc(-c2cc(CNC34CC5CC(CC(C5)C3)C4)on2)cc1` [Example 117a, N-((3-(4-bromophenyl)isoxazol-5-yl)methyl)adamantan-1-amine], the inhibition at 100 µM was 0 to 30%.

Take `Fc1ccc(-c2cc(CNC34CC5CC(CC(C5)C3)C4)no2)cc1` [Example 118a, N-((5-(4-fluorophenyl)isoxazol-3-yl)methyl)adamantan-1-amine]: the inhibition at 100 µM was in the range of 0 to 30%.

For `Clc1ccc(-c2cc(CNC34CC5CC(CC(C5)C3)C4)no2)cc1` [Example 119a, N-((5-(4-chlorophenyl)isoxazol-3-yl)methyl)adamantan-1-amine], the inhibition at 100 µM was 0 to 30%.

As for `Cc1ccc(-c2cc(CNC34CC5CC(CC(C5)C3)C4)no2)cc1` [Example 120a, N-((5-(p-tolyl)isoxazol-3-yl)methyl)adamantan-1-amine], the inhibition at 100 µM is 0 to 30%.

As for `Brc1ccc(-c2cc(CNC34CC5CC(CC(C5)C3)C4)no2)cc1` [Example 121a, N-((5-(4-bromophenyl)isoxazol-3-yl)methyl)adamantan-1-amine], the inhibition at 100 µM was 0 to 30%.

Take `COc1ccc(-c2cc(CNC34CC5CC(CC(C5)C3)C4)on2)cc1` [Example 122a, N-((3-(4-methoxyphenyl)isoxazol-5-yl)methyl)adamantan-1-amine]: the inhibition at 100 µM was in the range of 0 to 30%.

`c1ccc(-c2noc(CNC34CC5CC(CC(C5)C3)C4)n2)cc1` [Example 123a, N-((3-phenyl-1,2,4-oxadiazol-5-yl)methyl)adamantan-1-amine]: the inhibition at 100 µM was 0 to 30%.

Take `CC(C)(C)c1ccc(-c2noc(CNC34CC5CC(CC(C5)C3)C4)n2)cc1` [Example 124a, N-((3-(4-(tert-butyl)phenyl)-1,2,4-oxadiazol-5-yl)methyl)adamantan-1-amine]: the inhibition at 100 µM was 0 to 30%.

Regarding `FC(F)(F)c1cccc(-c2nc(CNC34CC5CC(CC(C5)C3)C4)no2)c1` [Example 125a, N-((5-(3-(trifluoromethyl)phenyl)-1,2,4-oxadiazol-3-yl)methyl)adamantan-1-amine], the inhibition at 100 µM lay in the range of 0 to 30%.

Take `COc1ccc(-c2nc(CNC34CC5CC(CC(C5)C3)C4)no2)cc1` [Example 126a, N-((5-(4-methoxyphenyl)-1,2,4-oxadiazol-3-yl)methyl)adamantan-1-amine]: the inhibition at 100 µM fell in the range of 0 to 30%.

On to `COc1ccc(-c2nnc(CNC34CC5CC(CC(C5)C3)C4)o2)cc1` [Example 127a, N-((5-(4-methoxyphenyl)-1,3,4-oxadiazol-2-yl)methyl)adamantan-1-amine], for which the inhibition at 100 µM is 0 to 30%.

As for `Cc1ccc(-c2nc(CNC34CC5CC(CC(C5)C3)C4)no2)cc1` [Example 128a, N-((5-(p-tolyl)-1,2,4-oxadiazol-3-yl)methyl)adamantan-1-amine], the inhibition at 100 µM fell in the range of 0 to 30%.

With `FC(F)(F)c1ccc(-c2nc(CNC34CC5CC(CC(C5)C3)C4)no2)cc1` [Example 129a, N-((5-(4-(trifluoromethyl)phenyl)-1,2,4-oxadiazol-3-yl)methyl)adamantan-1-amine], the inhibition at 100 µM was in the range of 0 to 30%.

With `c1ccc(-c2nc(CNC34CC5CC(CC(C5)C3)C4)no2)cc1` [Example 131a, N-((5-phenyl-1,2,4-oxadiazol-3-yl)methyl)adamantan-1-amine], the inhibition at 100 µM was 0 to 30%.

Regarding `c1ccc(-c2nc(CNC34CC5CC(CC(C5)C3)C4)cs2)cc1` [Example 132a, N-((2-phenylthiazol-4-yl)methyl)adamantan-1-amine], the inhibition at 100 µM was 0 to 30%.

As to `c1cncc(-c2noc(CNC34CC5CC(CC(C5)C3)C4)n2)c1` [Example 135a, Adamantan-1-yl-(3-pyridin-3-yl-[1,2,4]oxadiazol-5-ylmethyl)-amine], the inhibition at 100 µM was in the range of 0 to 30%.

`c1coc(-c2ccc(CNC34CC5CC(CC(C5)C3)C4)s2)c1` [Example 136a, N-((5-(Furan-2-yl)thiophen-2-yl)methyl)adamantan-1-amine]: the inhibition at 100 µM lay in the range of 0 to 30%.

For `c1cc(-c2ccc(CNC34CC5CC(CC(C5)C3)C4)s2)co1` [Example 137a, N-((5-(Furan-3-yl)thiophen-2-yl)methyl)adamantan-1-amine], the inhibition at 100 µM lay in the range of 0 to 30%.

As for `c1csc(-c2ccc(CNC34CC5CC(CC(C5)C3)C4)o2)c1` [Example 138a, Adamantan-1-yl-(5-thiophen-2-yl-furan-2-ylmethyl)-amine], the inhibition at 100 µM fell in the range of 0 to 30%.

As for `c1csc(-c2csc(CNC34CC5CC(CC(C5)C3)C4)c2)c1` [Example 140a, Adamantan-1-yl-[2,3′]bithiophenyl-5′-ylmethyl-amine], the inhibition at 100 µM lay within 0 to 30%.

In the case of `Cc1ccc(-c2ccc(CNC34CC5CC(CC(C5)C3)C4)s2)s1` [Example 141a, N-((5′-methyl-[2,2′-bithiophen]-5-yl)methyl)adamantan-1-amine], the inhibition at 100 µM is 0 to 30%.

Regarding `c1csc(-c2cc(CNC34CC5CC(CC(C5)C3)C4)no2)c1` [Example 142a, N-((5-(thiophen-2-yl)isoxazol-3-yl)methyl)adamantan-1-amine], the inhibition at 100 µM lay in the range of 0 to 30%.

Consider `c1cc(-c2nc(CNC34CC5CC(CC(C5)C3)C4)no2)cs1` [Example 143a, N-((5-(thiophen-3-yl)-1,2,4-oxadiazol-3-yl)methyl)adamantan-1-amine], for which the inhibition at 100 µM is 0 to 30%.

For `c1csc(-c2ncc(CNC34CC5CC(CC(C5)C3)C4)s2)c1` [Example 144a, N-((2-(thiophen-2-yl)thiazol-5-yl)methyl)adamantan-1-amine], the inhibition at 100 µM was in the range of 0 to 30%.

`Cc1oc(-c2cccs2)nc1CNC12CC3CC(CC(C3)C1)C2` [Example 145a, N-((5-methyl-2-(thiophen-2-yl)oxazol-4-yl)methyl)adamantan-1-amine]: the inhibition at 100 µM was 0 to 30%.

`c1csc(-c2nc(CNC34CC5CC(CC(C5)C3)C4)no2)c1` [Example 146a, N-((5-(thiophen-2-yl)-1,2,4-oxadiazol-3-yl)methyl)adamantan-1-amine]: the inhibition at 100 µM lay within 0 to 30%.

`c1csc(-c2nnc(CNC34CC5CC(CC(C5)C3)C4)o2)c1` [Example 147a, Adamantan-1-yl-(5-thiophen-2-yl-[1,3,4]oxadiazol-2-ylmethyl)-amine]: the inhibition at 100 µM lay in the range of 0 to 30%.

Consider `c1csc(-c2noc(CNC34CC5CC(CC(C5)C3)C4)n2)c1` [Example 148a, N-((3-(thiophen-2-yl)-1,2,4-oxadiazol-5-yl)methyl)adamantan-1-amine], for which the inhibition at 100 µM lay in the range of 0 to 30%.

As to `c1csc(-c2cc(CNC34CC5CC(CC(C5)C3)C4)on2)c1` [Example 149a, N-((3-(thiophen-2-yl)isoxazol-5-yl)methyl)adamantan-1-amine], the inhibition at 100 µM is 0 to 30%.

For `c1cc(-c2cc(CNC34CC5CC(CC(C5)C3)C4)no2)cs1` [Example 150a, Adamantan-1-yl-(5-thiophen-3-yl-isoxazol-3-ylmethyl)-amine], the inhibition at 100 µM fell in the range of 0 to 30%.

As to `c1csc(-c2nnc(CNC34CC5CC(CC(C5)C3)C4)s2)c1` [Example 151a, N-((5-(thiophen-2-yl)-1,3,4-thiadiazol-2-yl)methyl)adamantan-1-amine], the inhibition at 100 µM was in the range of 0 to 30%.

As to `c1cc(-c2csc(CNC34CC5CC(CC(C5)C3)C4)c2)cs1` [Example 152a, N-([3,3′-bithiophen]-5-ylmethyl)adamantan-1-amine], the inhibition at 100 µM was in the range of 0 to 30%.

Take `c1coc(-c2cc(CNC34CC5CC(CC(C5)C3)C4)no2)c1` [Example 153a, N-((5-(furan-2-yl)isoxazol-3-yl)methyl)adamantan-1-amine]: the inhibition at 100 µM was 0 to 30%.

For `Cc1ncc(-c2ccc(CNC34CC5CC(CC(C5)C3)C4)s2)s1` [Example 154a, N-((5-(2-methylthiazol-5-yl)thiophen-2-yl)methyl)adamantan-1-amine], the inhibition at 100 µM lay in the range of 0 to 30%.

For `Cn1cc(C(F)(F)F)c(-c2ccc(CNC34CC5CC(CC(C5)C3)C4)s2)n1` [Example 155a, N-((5-(1-methyl-4-(trifluoromethyl)-1H-pyrazol-3-yl)thiophen-2-yl)methyl)adamantan-1-amine], the inhibition at 100 µM was 0 to 30%.

Consider `Cc1nc(-c2ccc(CNC34CC5CC(CC(C5)C3)C4)s2)cs1` [Example 156a, N-((5-(2-methylthiazol-4-yl)thiophen-2-yl)methyl)adamantan-1-amine], for which the inhibition at 100 µM fell in the range of 0 to 30%.

Consider `c1csc(-c2ccc(-c3ccc(CNC45CC6CC(CC(C6)C4)C5)s3)s2)c1` [Example 157a, N-([2,2′:5′,2″-terthiophen]-5-ylmethyl)adamantan-1-amine], for which the inhibition at 100 µM is 0 to 30%.

With `c1cc(-c2ccc(CNC34CC5CC(CC(C5)C3)C4)s2)[nH]n1` [Example 158a, N-((5-(1H-pyrazol-5-yl)thiophen-2-yl)methyl)adamantan-1-amine], the inhibition at 100 µM fell in the range of 0 to 30%.

The same assay, now with this note: Table 1; 100 uM; Xenopus oocytes, pH 5.5, -20 mV; read-out: S31 OOcyte Inhibition at 100 uM (%).
Consider `CC1(C)C2CCC(CNCc3ccc(O)cc3O)C1C2` (centres unmarked) [Example 114, 4-{[(6,6-Dimethyl-bicyclo[3.1.1]hept-2-ylmethyl)-amino]methyl}-benzene-1,3-diol], for which the inhibition at 100 µM lay within 31 to 95%.

As for `Oc1ccc(CN2CCC3(CCCCC3)CC2)c(O)c1` [Example 115, 4-(3-Aza-spiro[5.5]undec-3-ylmethyl)-benzene-1,3-diol], the inhibition at 100 µM lay in the range of 31 to 95%.

As to `Oc1ccc(CN2CC3CC4CC(C3)CC2C4)c(O)c1` [Example 116, 4-(4-Aza-tricyclo[4.3.1.13,8]undec-4-ylmethyl)-benzene-1,3-diol], the inhibition at 100 µM fell in the range of 31 to 95%.

For the origin of these results see US9884832B2 (priority 2011, dated 2018).
